Data on 35 compounds can be found in ChEMBL document CHEMBL1141902, “Functionalization at position 3 of the phenyl ring of the potent mGluR5 noncompetitive antagonists MPEP” (Bioorg Med Chem Lett, 2005).

As a reminder, the IC50 is the concentration that inhibits the measured activity by half. For orientation: Ki means a measure of affinity in units of concentration, obtained from inhibition or displacement. Higher therefore signals a looser hold on the target.

The target in experiment [1] is T1, Metabotropic glutamate receptor 5 (Rattus norvegicus, UniProt P31424). The experiment is described as follows: Concentration required for 50% inhibition of rat metabotropic glutamate receptor 5 was determined using inositol phosphate hydrolysis assay.
T1 sequence (P31424 whole entry): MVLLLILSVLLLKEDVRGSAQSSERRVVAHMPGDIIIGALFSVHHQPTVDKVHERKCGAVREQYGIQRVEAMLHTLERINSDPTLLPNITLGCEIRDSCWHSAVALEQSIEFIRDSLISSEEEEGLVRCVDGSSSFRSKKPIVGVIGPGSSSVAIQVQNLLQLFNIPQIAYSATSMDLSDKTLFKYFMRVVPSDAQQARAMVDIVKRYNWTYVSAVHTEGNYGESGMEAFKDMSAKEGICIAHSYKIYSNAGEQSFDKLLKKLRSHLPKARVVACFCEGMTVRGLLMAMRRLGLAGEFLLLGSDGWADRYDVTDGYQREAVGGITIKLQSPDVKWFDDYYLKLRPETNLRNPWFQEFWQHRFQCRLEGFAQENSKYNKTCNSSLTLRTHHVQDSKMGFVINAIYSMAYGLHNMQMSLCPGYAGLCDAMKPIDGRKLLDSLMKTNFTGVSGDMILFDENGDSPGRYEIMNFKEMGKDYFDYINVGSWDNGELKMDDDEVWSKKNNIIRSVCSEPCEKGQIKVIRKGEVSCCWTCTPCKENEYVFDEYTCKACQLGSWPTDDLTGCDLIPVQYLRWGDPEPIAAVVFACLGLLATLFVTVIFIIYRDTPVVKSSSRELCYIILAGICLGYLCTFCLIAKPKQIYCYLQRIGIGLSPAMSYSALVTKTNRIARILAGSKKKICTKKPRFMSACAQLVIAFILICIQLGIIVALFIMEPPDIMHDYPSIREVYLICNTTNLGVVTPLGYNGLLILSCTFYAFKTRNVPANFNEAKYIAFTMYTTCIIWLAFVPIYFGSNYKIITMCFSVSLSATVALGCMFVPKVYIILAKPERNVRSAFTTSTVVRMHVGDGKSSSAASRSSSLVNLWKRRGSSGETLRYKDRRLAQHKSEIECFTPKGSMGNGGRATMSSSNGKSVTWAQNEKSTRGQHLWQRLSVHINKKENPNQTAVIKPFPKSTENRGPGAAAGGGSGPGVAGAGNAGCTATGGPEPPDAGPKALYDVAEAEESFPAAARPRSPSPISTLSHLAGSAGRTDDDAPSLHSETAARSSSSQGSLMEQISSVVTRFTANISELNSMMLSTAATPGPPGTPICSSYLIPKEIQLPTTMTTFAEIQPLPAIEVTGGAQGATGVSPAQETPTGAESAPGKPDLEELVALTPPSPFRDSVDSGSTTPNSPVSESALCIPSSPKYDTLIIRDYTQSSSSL
In experiment [2] the target is T1, Metabotropic glutamate receptor 5. The experiment is described as follows: In vitro binding affinity of compound towards rat metabotropic glutamate receptor 5 was determined by displacement of [3H]M-MPEP from rat whole brain. Background: In a radioligand displacement assay an active substance lowers the binding of a labelled ligand.

In experiment [1], `Cc1cccc(C#Cc2cccc(OC(=O)c3ccccc3)c2)n1` had an IC50 of 1500 nM.

On to `Cc1cccc(C#Cc2cccc(C#N)c2)n1`, for which the concentration for half-maximal inhibition (IC50) in experiment [1] came to 5 nM. In experiment [1], `Cc1cccc(C#Cc2cccc(OCCc3ccccc3)c2)n1` had an IC50 of 1590 nM. This IC50 is about 320-fold higher than that of the compound before.

In experiment [1], `Cc1cccc(C#Cc2cccc(OCCc3ccc(F)cc3)c2)n1` came in with an IC50 of 2050 nM. For the compound `Cc1cccc(C#Cc2cccc(-c3cccs3)c2)n1`, half-maximal inhibition in experiment [1] (IC50) was put at 656 nM. Also, the inhibitory constant (Ki) in experiment [2] came out at 147 nM.

In experiment [1], `Cc1cccc(C#Cc2cccc(OCCCCc3ccccc3)c2)n1` registered an IC50 of 1160 nM.

In the case of `Cc1cccc(C#Cc2cccc(OCCCc3ccccc3)c2)n1`, half-maximal inhibition in experiment [1] (IC50) required 1190 nM.

The compound `COc1cccc(-c2cccc(C#Cc3cccc(C)n3)c2)c1` returned an IC50 in experiment [1] of 493 nM. In experiment [2], affinity was put at a Ki of 2360 nM.

In experiment [1], `Cc1cccc(C#Cc2cccc(-c3ccco3)c2)n1` gave a half-inhibitory concentration (IC50) of 371 nM. For the same compound, the inhibition constant Ki in experiment [2] was found to be 36 nM. Regarding `COc1cccc(C(=O)Oc2cccc(C#Cc3cccc(C)n3)c2)c1`, the concentration for half-maximal inhibition (IC50) in experiment [1] came to 1720 nM. With `Cc1ccc(S(=O)(=O)Oc2cccc(C#Cc3cccc(C)n3)c2)cc1`, the concentration for half-maximal inhibition (IC50) in experiment [1] is > 10000 nM. Still for that read-out and setting: the result for `Cc1cccc(C#Cc2cccc(OCc3ccccc3)c2)n1` reads 1840 nM. In the case of `Cc1cccc(C#Cc2cncc(-c3cccc(C)n3)c2)n1`, 257 nM corresponded to half-maximal inhibition in experiment [1] (IC50). In addition, the Ki in experiment [2] is 13 nM.

As for `Cc1cccc(C#Cc2cncc(-c3ccccc3)c2)n1`, the concentration for half-maximal inhibition (IC50) in experiment [1] was found to be 20 nM. In experiment [2], the affinity corresponds to a Ki of 1.7 nM. On to `Cc1cccc(C#Cc2cccc(OCc3cccc(I)c3)c2)n1`, for which the IC50 in experiment [1] turned out to be 1980 nM. Consider `Cc1cccc(C#Cc2cccc(-c3ccccc3)c2)n1`, for which the IC50 in experiment [1] was 629 nM. For the same compound, in experiment [2], the affinity corresponds to a Ki of 993 nM.

In experiment [1], `Cc1cccc(C#Cc2cccc(OCC3CC3)c2)n1` showed an IC50 of 420 nM. As for `Cc1cccc(C#Cc2cccc(OC(=O)Cc3ccccc3)c2)n1`, the IC50 in experiment [1] is 740 nM. Still for that read-out and setting: the result for `Cc1cccc(C#Cc2cccc(OC(=O)c3cccc(I)c3)c2)n1` reads 1100 nM; that for `Cc1cccc(C#Cc2cccc(OC(=O)CCCBr)c2)n1`, 3350 nM. The compound `Cc1cccc(C#Cc2cccc(OS(C)(=O)=O)c2)n1` came in with a half-inhibitory concentration (IC50) in experiment [1] of 180 nM. Same read-out and setting: to `Cc1cccc(C#Cc2cccc([N+](=O)[O-])c2)n1` belongs 13 nM; to `Cc1cccc(C#Cc2cccc(OC(=O)CCCc3ccccc3)c2)n1`, 1170 nM; to `Cc1cccc(C#Cc2cccc(OC(=O)CCc3ccccc3)c2)n1`, 890 nM.

Compound `C=CCOc1cccc(C#Cc2cccc(C)n2)c1` returned an IC50 in experiment [1] of 290 nM. In experiment [1], `CC(=O)c1cccc(C#Cc2cccc(C)n2)c1` came in with an IC50 of 146 nM. On to `Cc1cccc(C#Cc2cncc(-c3ccco3)c2)n1`, for which the IC50 in experiment [1] came out at 205 nM. In experiment [2], this compound returned a Ki of 6.5 nM.

Take `Cc1cccc(C#Cc2cncc(-c3cccs3)c2)n1`: the IC50 in experiment [1] came out at 271 nM. The compound further had an inhibition constant Ki in experiment [2] of 155 nM. In the case of `COC(=O)c1cccc(C#Cc2cccc(C)n2)c1`, the IC50 in experiment [1] was 208 nM. For `Cc1cccc(C#Cc2cccc(N)c2)n1`, the concentration for half-maximal inhibition (IC50) in experiment [1] is 188 nM. `COc1cccc(-c2cncc(C#Cc3cccc(C)n3)c2)c1` displayed an IC50 in experiment [1] of 282 nM. Also, the Ki in experiment [2] stood at 74 nM. Take `COc1cccc(COc2cccc(C#Cc3cccc(C)n3)c2)c1`: the IC50 in experiment [1] was determined as 1300 nM. Still for that read-out and setting: the result for `COC(=O)COc1cccc(C#Cc2cccc(C)n2)c1` reads 2400 nM; that for `Cc1cccc(C#Cc2cccc(OC(=O)c3ccco3)c2)n1`, 1010 nM. Same read-out and setting: the result for `COc1cccc(C#Cc2cccc(C)n2)c1` [M-MPEP] reads 8 nM.
